# Test results as given in article PMC8586358 (Nature Communications, 2021).
# Values joined by “and” are separate entries in the source; they are usually repeats but may differ in a detail not shown here. Equal values may be shown once. Read-outs that look alike come from different tables or passages of the source.
# Legend:
# [1] = molecular target: T1, MAGL (Homo sapiens, UniProt Q99685); test: 2-Arachidonoylglycerol-based fluorescence assay for DH-463; assay type: biochemical
# T1 sequence (Q99685 1-303): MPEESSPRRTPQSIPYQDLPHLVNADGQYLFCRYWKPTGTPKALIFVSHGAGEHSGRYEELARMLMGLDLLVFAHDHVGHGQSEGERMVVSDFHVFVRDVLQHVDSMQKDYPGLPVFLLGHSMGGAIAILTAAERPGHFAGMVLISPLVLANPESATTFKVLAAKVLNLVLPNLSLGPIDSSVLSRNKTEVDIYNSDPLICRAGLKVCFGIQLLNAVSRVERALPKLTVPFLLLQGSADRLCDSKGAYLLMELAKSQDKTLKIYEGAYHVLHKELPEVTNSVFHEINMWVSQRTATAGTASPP
# Procedure: The natural substrate assays were performed as reported previously[80],[81]. All chemicals and reagents were purchased from Sigma-Aldrich, unless mentioned otherwise. […] 2-Arachidonoylglycerol was from Cayman Chemical. All measurements were performed in n = 4 or n = 8 for controls, with Z’ ≥ 0.6.
# [2] = molecular target: T2, D3R in the Islands of Calleja (Mus musculus, UniProt P30728); test: In vivo competitive drug-binding measurement (cariprazine i.p., then Fluo-CAR labeling of acute slices); conditions: cariprazine 1 mg/kg i.p., 2 h
# T2 construct: from tissue; host or cells: mouse brain (Islands of Calleja, ventral and dorsal striatum); acute slices or fresh-frozen cryosections
# Procedure: Male 26–33-days-old C57BL/6 mice were intraperitoneally injected with 1 mg/kg cariprazine or an equal volume of vehicle (0.9% saline + 1% Tween80). After injection (2 h), pharmacological tissue labeling was carried out similarly to the previous experiments. […] Slices were rinsed three times with ACSF and fixed overnight with 4% PFA. Slices were either processed for correlated confocal and STORM imaging or for conventional confocal imaging.
# [3] = molecular target: α7-nAchR-HA (Homo sapiens, UniProt P36544)
# [4] = molecular target: T3, D2R (Homo sapiens, UniProt P14416); test: Fluo-cariprazine PharmacoSTORM signal in D2R-expressing cells (Supplementary Fig. S6d); assay type: binding
# T3 construct: expressed in transfected cells; host or cells: HEK 293
# From the text: Generation of N-terminally EGFP-tagged mouse CB1R was previously described[8]. The coding sequence of monoacylglycerol lipase (MAGL) was amplified with mMGL_fw and mMGL_rev primers using a mouse brain cDNA library as a template. The PCR product was digested with HindIII and BamHI enzymes and cloned into pcDNA3.1 backbone. GFP-MGL was constructed by subcloning the open reading frame of MAGL into pAcGFP1-C1 vector following HindIII/BamHI digestion. […] The amplified DNA was inserted into pcDNA3.1 vector between the BamHI and XhoI restriction sites. TMEM35 in pCMV6 vector was from Origene (RC209790). The pGloSensor™-22F cAMP plasmid was from Promega. The plasmid encoding CB1R was generated by inserting the coding sequence of human CB1R into pCAGIG vector. The plasmids encoding Gi1 subunits (αi1, β1, and γ2) were from the cDNA Resource Center. We created Gαi1–Rluc8 using overlap exchange PCR, Rluc8 was inserted into Gαi1 between residue 91 and 92 with SGGGGS linkers similar to a previous design[77]. Venus–β1 was created by replacing YFP with Venus in YFP–β1 using restriction digestion, YFP–β1 plasmid construct was described previously[78].
# For microscopic experiments, cells were seeded one day before transfection on poly-D-lysine-coated coverslips in 24-well culture plates. Coverslips were cleaned with extensive 2 M NaOH and 70% ethanol washing steps prior to use. Transient transfection was done with Lipofectamine 2000 (Thermo Fischer) according to the manufacturer’s protocol. After transfection (20–28 h), pharmacological treatment was applied and then combined with immunolabeling. The full procedure was optimized for each investigated protein. In the case of D3R-, CB1R-, and α7-nAchR-expressing cells, all labeling and washing steps were executed in Hanks’ balanced salt solution (Sigma-Aldrich H6648) on live cells, and in Dulbecco’s Phosphate Buffered Saline (Corning, 21-031-CV) on fixed cells. The labeling steps with antibodies, ligands, or fixatives were followed by three washing steps. […] Unless otherwise stated, we used CF568-labeled secondary antibodies.
# The HA-D3R-expressing cells were live-stained with anti-HA primary and secondary antibodies for 10 min at room temperature. […] Cells were fixed in 4% PFA for 10 min before imaging. For Supplementary Fig. S5g, Cy5-labeled secondary antibody was applied, without fluorescent ligand treatment. For fluo-cannabinoid binding experiments, all steps were executed at room temperature. […] MAGL pharmacological labeling was performed in culture medium in a 5% CO2 atmosphere at 37 °C. […] Before immunolabeling, cells were washed with 100% methanol three times for 10 min and were blocked with 5% normal donkey serum (NDS) in 0.1 M phosphate buffer (PB; pH 7.4), for 30 min. Anti-GFP immunolabeling was done in 0.1 M PB and immunostained cells were postfixed with 4% PFA before imaging. In the case of α7-nAChR experiments, its chaperon protein, NACHO (TMEM35) was co-transfected in a 10 to 1 receptor:chaperon ratio in order to enhance cell-surface expression of the ion channel[79]. MLA pretreatment and Alexa647-bungarotoxin labeling were done at 4 °C for 20 min. After pharmacological labeling, the cells were fixed with 4% PFA, and subsequent anti-HA-immunolabeling was done at room temperature. Immunolabeling was followed by post-fixation.
# To analyze the number of localization points (LPs) in membranes of cultured cells, we merged the dSTORM images obtained from pharmacolabeling (PharmacoSTORM) and immunolabeling (ImmunoSTORM). […]
# [5] = molecular target: T4, CB1R (Homo sapiens, UniProt P21554); assay type: cell-based; set-up: expressed in transfected cells; host or cells: HEK 293T; conditions: for cAMP reduction (%): single experiments
# [6] = molecular target: T4, CB1R; test: Ligand-binding assay, affinity of fluo-cannabinoid for CB1R (Supplementary Table S1)
# [7] = molecular target: T5, D3R (Homo sapiens, UniProt P35462); test: BRET-based Gi1-activation assay in HEK 293T cells; assay type: cell-based
# T5 construct: expressed in transfected cells; host or cells: HEK 293 (microscopy), HEK 293T (BRET)
# From the text: The next day we replaced the medium with modified Kreb’s Ringer medium and performed BRET experiments using a Thermo Scientific Varioskan Flash multimode plate reader similarly as previously described. […] To calculate the BRET response, we first subtracted the BRET ratio of cells coexpressing the untagged β1 subunit from the BRET ratio of cells coexpressing Venus-β1. Then we corrected the baseline BRET ratio and subtracted the BRET ratio of vehicle-treated cells from the average BRET ratio of stimulus-treated cells. All BRET measurements were performed in triplicates.
# [8] = log(agonist) vs. response, variable slope
# T2 sequence (P30728 whole entry): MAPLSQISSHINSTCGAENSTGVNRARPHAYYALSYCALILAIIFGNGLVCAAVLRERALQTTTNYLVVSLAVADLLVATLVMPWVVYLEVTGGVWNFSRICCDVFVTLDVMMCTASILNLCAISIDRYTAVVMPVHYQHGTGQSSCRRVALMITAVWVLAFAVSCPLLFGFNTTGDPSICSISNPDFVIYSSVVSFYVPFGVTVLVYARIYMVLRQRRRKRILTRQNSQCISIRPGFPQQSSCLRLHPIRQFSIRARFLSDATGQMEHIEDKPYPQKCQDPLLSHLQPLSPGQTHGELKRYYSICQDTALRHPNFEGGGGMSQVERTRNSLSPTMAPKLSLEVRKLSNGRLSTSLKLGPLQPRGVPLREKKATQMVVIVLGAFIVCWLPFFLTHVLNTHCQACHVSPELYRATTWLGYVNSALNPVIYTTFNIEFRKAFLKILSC
# T3 sequence (P14416 whole entry): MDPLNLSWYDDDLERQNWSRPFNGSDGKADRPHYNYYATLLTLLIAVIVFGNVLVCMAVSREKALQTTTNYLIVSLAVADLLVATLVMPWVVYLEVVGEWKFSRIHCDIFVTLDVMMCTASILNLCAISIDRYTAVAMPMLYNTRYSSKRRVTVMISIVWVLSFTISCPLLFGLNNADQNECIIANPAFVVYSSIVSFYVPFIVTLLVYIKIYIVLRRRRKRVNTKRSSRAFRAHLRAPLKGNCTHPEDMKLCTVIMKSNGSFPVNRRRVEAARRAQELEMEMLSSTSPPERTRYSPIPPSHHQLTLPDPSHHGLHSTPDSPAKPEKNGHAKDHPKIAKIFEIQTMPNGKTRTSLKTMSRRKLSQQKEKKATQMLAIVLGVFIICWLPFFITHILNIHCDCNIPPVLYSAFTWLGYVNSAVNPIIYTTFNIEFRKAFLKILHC
# T4 sequence (P21554 whole entry): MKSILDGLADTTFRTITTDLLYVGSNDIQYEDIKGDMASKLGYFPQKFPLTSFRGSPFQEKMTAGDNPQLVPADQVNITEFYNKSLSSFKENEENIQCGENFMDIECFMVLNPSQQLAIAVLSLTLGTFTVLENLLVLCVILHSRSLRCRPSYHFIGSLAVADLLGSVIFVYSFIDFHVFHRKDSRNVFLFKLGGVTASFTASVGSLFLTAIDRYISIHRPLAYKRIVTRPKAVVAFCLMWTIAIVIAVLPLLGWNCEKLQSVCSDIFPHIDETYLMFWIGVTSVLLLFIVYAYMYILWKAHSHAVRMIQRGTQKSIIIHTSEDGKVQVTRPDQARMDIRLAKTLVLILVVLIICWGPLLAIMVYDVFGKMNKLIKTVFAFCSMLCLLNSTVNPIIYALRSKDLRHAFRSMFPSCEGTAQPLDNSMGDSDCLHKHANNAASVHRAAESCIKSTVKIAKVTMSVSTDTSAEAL
# T5 sequence (P35462 whole entry): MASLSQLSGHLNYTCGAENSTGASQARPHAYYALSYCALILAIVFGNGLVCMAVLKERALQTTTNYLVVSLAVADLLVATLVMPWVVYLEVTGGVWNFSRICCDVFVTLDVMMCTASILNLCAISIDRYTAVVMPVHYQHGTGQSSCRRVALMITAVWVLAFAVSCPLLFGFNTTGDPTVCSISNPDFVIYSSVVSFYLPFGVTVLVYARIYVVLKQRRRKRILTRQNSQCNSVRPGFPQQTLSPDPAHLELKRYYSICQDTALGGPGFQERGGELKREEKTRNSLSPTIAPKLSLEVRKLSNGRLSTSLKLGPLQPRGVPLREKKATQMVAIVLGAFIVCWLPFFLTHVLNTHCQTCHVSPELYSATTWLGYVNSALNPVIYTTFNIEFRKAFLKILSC
# α7-nAchR-HA, sequence (P36544 23-502): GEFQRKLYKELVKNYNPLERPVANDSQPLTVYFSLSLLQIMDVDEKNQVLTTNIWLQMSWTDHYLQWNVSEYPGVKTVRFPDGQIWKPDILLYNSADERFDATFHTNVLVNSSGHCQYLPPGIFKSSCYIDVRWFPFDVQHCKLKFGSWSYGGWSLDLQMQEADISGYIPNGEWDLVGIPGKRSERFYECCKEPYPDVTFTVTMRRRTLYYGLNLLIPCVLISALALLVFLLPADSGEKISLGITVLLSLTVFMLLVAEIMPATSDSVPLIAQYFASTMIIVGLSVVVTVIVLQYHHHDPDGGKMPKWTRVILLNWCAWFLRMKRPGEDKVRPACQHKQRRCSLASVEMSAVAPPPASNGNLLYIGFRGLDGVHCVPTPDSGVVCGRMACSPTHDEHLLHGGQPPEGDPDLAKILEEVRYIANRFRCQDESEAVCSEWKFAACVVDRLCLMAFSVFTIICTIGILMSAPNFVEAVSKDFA
smiles,measurement,setting,value
CN1/C(=C/C=C/C=C/C2=[N+](CCCCCC(=O)NCc3cn(CCOc4ccc(C(c5ccc(Cl)cc5)N5CCN(C(=O)OC(C(F)(F)F)C(F)(F)F)CC5)cc4)nn3)c3ccccc3C2(C)C)C(C)(C)c2ccccc21.[Cl-] (centres unmarked) [DH-463],HILLSLOPE (best-fit),[1],"-0,7836"
same,"MAGL activity (%), mean",[1]; 10^-5 M,5.023%
same,"MAGL activity (%), mean",[1]; 10^-6 M,10.8061%
same,"MAGL activity (%), mean",[1]; 10^-7 M,27.8239%
same,"MAGL activity (%), mean",[1]; 10^-8 M,51.3279%
same,"MAGL activity (%), mean",[1]; 10^-9 M,91.5194%
same,"MAGL activity (%), mean",[1]; 10^-10 M,105.132%
same,LOGIC50 (best-fit),[1]; concentration in M,"-7,938"
same,"BOTTOM (best-fit), MAGL activity","[1]; log(inhibitor) vs. response, variable slope","7,823%"
same,IC50,[1]; read-out: IC50 (best-fit),11.5 nM
CN(C)C(=O)N[C@H]1CC[C@H](CCN2CCN(c3cccc(Cl)c3Cl)CC2)CC1 [cariprazine],effect on fluo-cariprazine signal in the hilar subregion of the Islands of Calleja,[2],completely eliminated
same,Fluo-CAR STORM density (LPs/μm2),"[2]; slices with 30 nM Fluo-CAR, Islands of Calleja, per animal",0.8583 LPs/μm2 and 0.5531 LPs/μm2 and 1.2207 LPs/μm2 and 0.9766 LPs/μm2
CCN1C[C@]2(COC(=O)c3ccccc3N3C(=O)C[C@H](C)C3=O)CC[C@H](OC)[C@@]34[C@@H]5C[C@H]6[C@H](OC)[C@@H]5[C@](O)(C[C@@H]6OC)[C@@](O)([C@@H](OC)[C@H]23)[C@@H]14 [methyllycaconitine],effect on PharmacoSTORM signal of Alexa647-α-bungarotoxin,[3],fully prevented
CN(CCCNC(=O)CCCCC[N+]1=C(/C=C/C=C/C=C2/N(C)c3ccc(S(=O)(=O)O)cc3C2(C)C)C(C)(C)c2cc(S(=O)(=O)[O-])ccc21)C(=O)N[C@H]1CC[C@@H](CCN2CCN(c3cccc(Cl)c3Cl)CC2)CC1 [fluo-cariprazine],"PharmacoSTORM LPs / ImmunoSTORM LPs (% of D3R), actual mean",[4],"7,203%"
same,PharmacoSTORM LPs / ImmunoSTORM LPs (% of D3R),[4]; single experiments,3.466% and 8.432% and 4.243% and 12.6707%
CCCCCCC(C)(C)c1cc(O)c2c(c1)OC(C)(C)c1ccc(CNCCCCCCNC(=O)CCCCC[N+]3=C(/C=C/C=C/C=C4/N(C)c5ccc(S(=O)(=O)O)cc5C4(C)C)C(C)(C)c4cc(S(=O)(=O)[O-])ccc43)cc1-2 [fluo-cannabinoid],HILLSLOPE (best-fit),[5],"0,9981"
same,"Span (best-fit), cAMP reduction",[5],"37,53%"
same,cAMP reduction (%),[5]; 10-6.5 M,31.4472% and 32.8666% and 33.3129% and 25.9155% and 23.0595%
same,cAMP reduction (%),[5]; 10-8.5 M,-1.6297% and 1.0916% and -1.1492% and -4.3119% and 0.7084%
same,cAMP reduction (%),[5]; 10^-6 M,35.6911% and 25.5164% and 35.8634% and 19.8904% and 28.6228%
same,cAMP reduction (%),[5]; 10^-9 M,0%
same,LOGEC50 (best-fit),[5]; concentration in M,"-7,482"
same,Emax,[5]; in vitro cAMP assay on CB1R,36.1%
same,"BOTTOM (best-fit), cAMP reduction",[5]; [8],"-1,444%"
same,"TOP (best-fit), cAMP reduction",[5]; [8],"36,09%"
same,EC50,[5]; read-out: EC50 (best-fit),33 nM
same,Ki,[6],3.5 nM
CCCN1CCO[C@@H]2c3cc(O)ccc3OC[C@H]21 [PD128907],"Gi1-BRET response (%, norm. to pretreatment)","[7]; PD 128907 10-6.5 M, vehicle pretreatment",106.065% and 96.3019% and 97.7639%
same,"Gi1-BRET response (%, norm. to pretreatment)","[7]; PD 128907 10-7.5 M, vehicle pretreatment",94.4647% and 90.0327% and 83.0176%
same,"Gi1-BRET response (%, norm. to pretreatment)","[7]; PD 128907 10-8.5 M, vehicle pretreatment",62.6732% and 52.2099% and 77.0199%
same,"Gi1-BRET response (%, norm. to pretreatment)","[7]; PD 128907 10-9.5 M, vehicle pretreatment",23.5448% and 22.9857% and 15.0109%
same,"Gi1-BRET response (%, norm. to pretreatment)","[7]; PD 128907 10^-6 M, vehicle pretreatment",100%
same,"Gi1-BRET response (%, norm. to pretreatment)","[7]; PD 128907 10^-7 M, vehicle pretreatment",92.6877% and 91.1582% and 95.9579%
same,"Gi1-BRET response (%, norm. to pretreatment)","[7]; PD 128907 10^-8 M, vehicle pretreatment",89.6043% and 74.7508% and 92.6073%
same,"Gi1-BRET response (%, norm. to pretreatment)","[7]; PD 128907 10^-9 M, vehicle pretreatment",56.1354% and 47.8674% and 57.7701%
same,"TOP (best-fit), Gi1-BRET response","[7]; PD 128907, vehicle pretreatment","95,84%"
same,LOGEC50 (best-fit),"[7]; PD 128907, vehicle pretreatment, concentration in M","-8,980"
same,EC50,"[7]; vehicle pretreatment, n = 3, read-out: EC50 of PD128907",1.05 nM
